In brackets after ≈: the same amount, converted by molar mass. Blank lines part the entries; values can stand above or below the compound they belong to.
Experiments:
[1] = tested on: reconstructed human epidermis 3D tissues—EpiDerm™ (EPI-212); conditions: for tissue viability compared to negative control (DPBS-treated inserts) / skin irritation classification (OECD Test Guideline 439, irritant if viability below 50%): 100 µM; for skin irritation classification (OECD Test Guideline 439, irritant if viability below 50%): EpiDerm
Source text: The reconstructed human epidermal model—EpiDerm™ (EPI-212, [MatTek Corporation protocol, 2021], Bratislava, Slovakia) (Lot no. 36155) is a multilayered differentiated human epidermis model made of normal human-derived epidermal keratinocytes, validated as test method for the OECD 439 (In vitro skin irritation: reconstructed human epidermis test methods) ([OECD, 2021]). The EpiDerm™ tissues (prepared as inserts) that served as model for the skin irritation test together with the specific culture media (assay medium—EPI-100-NMM), Dulbecco’s phosphate buffered saline (DPBS) (negative control), sodium dodecyl sulphate (SDS) 5% and the MTT kit were provided by the manufacturer (MatTek Corporation, Bratislava, Slovakia).
The in vitro skin irritation test (EPI-212-SIT) was performed according to the manufacturer’s recommendations and to the data from the literature [MatTek Corporation protocol—In vitro EpiDerm Skin Irritation Test (EPI-200-SIT); [Kandarova et al., 2018]]. […] The same protocol was performed for the positive (5% SDS in saline) and negative (sterile DPBS) controls. The tissue viability (%) was calculated according to the formulas specified in the literature ([Pinzaru et al., 2021]).

[2] = tested on: HepaRG cells; experiment: in vitro; type: cell-based, human; conditions: 100 µM
Experimental: (§1) To evaluate the in vitro effect of rutin esters (REs) on cells’ viability, the MTT technique was applied following a 24 h treatment of H9c2(2-1), HepaRG, and HaCaT cells with RUT-O and RUT-L (1, 10, 25, 50, and 100 µM). The parent compounds (PCs)—RUT, OA, and LA were also tested. DMSO was used as solvent for all test compounds (RUT, OA, LA, RUT-O, and RUT-L). The impact of DMSO at tested concentrations (1, 10, 25, 50, and 100 µM) was also assessed in vitro. At the end of the treatment, fresh media (100 µl) and the MTT reagent (10 µl) were added in each well, and the plates were incubated for 3 h at 37°C. The final steps were as follows: addition of the solubilization solution (100 µl/well), incubation of the plates at room temperature for 30 min, protected from light, and absorbance measurement at two wavelengths (570 and 630 nm) using Cytation 5 (BioTek Instruments Inc., Winooski, VT, United States). The results were expressed as percentage (%) of viable cells normalized to control cells (unstimulated cells).

[3] = tested on: HepaRG cells; experiment: Wound healing (scratch) assay; type: cell-based, human; conditions: 25 µM, 24 h, control 44.31%
Experimental: (§2) The influence of RUT-O and RUT-L on the migration of cells was assessed by performing the wound healing (scratch) assay. In brief, the cells (10^5 cells/ml/well) were cultured in 24-well plates (Corning Costar), and an automatic scratch was made in each well by using the AutoScratchTM Wound Making Tool provided by BioTek® Instruments Inc. (Winooski, VT, United States). The cells were further treated with the flavonoid esters at the concentration of 25 μM for 24 h, and representative images of the wound area were taken at 0 and 24 h using Cytation 1 (BioTek® Instruments Inc., Winooski, VT, United States). The wound widths were measured using Gen5 TM Microplate Data Collection and Analysis Software (BioTek® Instruments Inc., Winooski, VT, United States). The effects on cell migration were quantified by calculating the wound healing rates (%) using a formula presented in our previous studies ([[…] et al., 2020]).

[4] = tested on: HaCaT cells; type: cell-based, human; conditions: 100 µM, 24 h, Hoechst 33342
Experimental: (§3) The potential toxicity of 100 μM RUT, OA, LA, RUT-O, and RUT-L at nuclear level was tested by applying the Hoechst 33342 staining assay protocol according to the manufacturer’s (Thermo Fisher Scientific, Inc., Waltham, MA, United States) recommendations. In brief, H9c2(2-1), HepaRG, and HaCaT cells were seeded in 12-well plates (10^5 cells/1.5 ml/well) and treated with the test compounds for 24 h. After the stimulation period, the media was removed, and the staining solution diluted 1:2000 in PBS was added (500 µl/well). The plates were incubated for 10 min at room temperature, protected from light. Finally, the staining solution was washed with PBS and the pictures were taken using Cytation 1 (BioTek Instruments Inc., Winooski, VT, United States) and analyzed by the means of Gen5™ Microplate Data Collection and Analysis Software (BioTek Instruments Inc., Winooski, VT, United States). Staurosporine (STP) 5 µM was selected as positive control for apoptosis.

[5] = tested on: HepaRG cells; type: cell-based, human; conditions: 100 µM, 24 h, Hoechst 33342
Experimental: as §3

[6] = tested on: HaCaT cells; type: cell-based, human; conditions: 24 h; for effect on cell viability: 1-100 µM
Experimental: as §1

[7] = tested on: H9c2(2-1) cells; experiment: in vitro; type: cell-based, rat; conditions: H9c2(2-1), 24 h; for cell viability normalized to control: MTT
Experimental: as §1

[8] = tested on: H9c2(2-1), HaCaT, and HepaRG cells; type: cell-based; conditions: 100 µM, 24 h; for round cells floating in the culture medium: bright field; for impact on cells' adherence or confluency: compared to control cells
Experimental: To verify the impact of PCs (RUT, OA and LA) and REs (RUT-O and RUT-L) on the morphology and confluence of H9c2(2-1), HaCaT, and HepaRG cells, a microscopic examination was performed. The cells were observed under bright field illumination and photographed at the end of the 24 h treatment period using Cytation 1 (BioTek Instruments Inc., Winooski, VT, United States). The photographs were processed using the Gen5™ Microplate Data Collection and Analysis Software (BioTek Instruments Inc., Winooski, VT, United States).

[9] = tested on: chorioallantoic membrane; experiment: HET-CAM in ovo irritant potential; type: in vivo, Gallus domesticus; conditions: for vascular irritation signs (hemorrhage, lysis, coagulation) in words: 5 min after application; for tC = time of coagulation / tH = time of hemorrage / tL = time of lysis / Irritation score (IS): test compounds 100 µM, 5 min observation; for Irritation score (IS): 600 μl
Experimental: To perform a toxicological screening and to verify the irritant potential of the RUT-O and RUT-L were used chicken eggs (Gallus domesticus). Specifically, the eggs were prepared as follows: 1) after being washed and disinfected with 70% ethanol (v/v), the eggs were placed in an incubator in a horizontal posture; 2) on the fourth day of incubation, a small hole was made through which a volume of approximately 7–8 ml of albumen was extracted in order to facilitate the detachment of the chorioallantoic membrane from the inner shell of the egg; 3) on the fifth day of incubation, a window was cut in the upper part of the egg to allow the visualization of the blood vessels, which was then covered with adhesive tape and the eggs were placed in the incubator until the day of the beginning of the experiment. Using the Hen’s Egg Test—Chorioallantoic Membrane (HET-CAM) assay, the potential in ovo toxicity of the samples was evaluated. […] [Kis et al., 2022]). […] In order to observe any vascular effects, a stereomicroscope (Discovery 8 Stereomicroscope Zeiss, Göttingen, and Germany) was used, and images were taken with a Zeiss Axio CAM 105 color camera before and 5 min after the application of the samples. The same experimental protocol was applied for the parent compounds—RUT, OA, and LA.

[10] = tested on: H9c2(2-1) cells; type: cell-based, rat; conditions: 100 µM, 24 h, Hoechst 33342
Experimental: as §3

[11] = in vitro; type: cell-based, human; conditions: human
Experimental: as §1

[12] = tested on: HUVEC endothelial cells; conditions: ref Bass et al., 2020; cited from earlier work
[13] = in vitro; type: cell-based, rat; conditions: rat
Experimental: as §1

[14] = tested on: HaCaT cells; design: method as in Deepika et al., 2019; conditions: ref Deepika et al., 2019; cited from earlier work
[15] = tested on: HaCaT cells; experiment: Wound healing (scratch) assay; type: cell-based, human; conditions: 25 µM, 24 h
Experimental: as §2

[16] = tested on: H9c2(2-1) cells; experiment: Wound healing (scratch) assay; type: cell-based, rat; conditions: 25 µM, 24 h, control 45.71%
Experimental: as §2

[17] = lowest concentrations (1 and 10 µM)

Structure (SMILES): CCCCCCCC/C=C\CCCCCCCC(=O)OC1C(C)OC(OCC2OC(Oc3c(-c4ccc(O)c(O)c4)oc4cc(O)cc(O)c4c3=O)C(O)C(O)C2O)C(O)C1O (stereo not drawn) [RUT-O, rutin oleate]
- tissue viability compared to negative control (DPBS-treated inserts) ([1]; EpiDerm inserts): over 100%
- skin irritation classification (OECD Test Guideline 439, irritant if viability below 50%) [1]: non-irritant
- cell viability normalized to control ([2]; HepaRG, 24 h, MTT): 83.17%
- wound healing rate [3]: 27.18%
- nuclear morphology changes [4]: nuclear fragmentation and formation of apoptotic bodies
- nuclear morphology changes [5]: chromatin condensation
- cell viability normalized to control ([6]; 100 µM, MTT): 78.32%
- cell viability normalized to control ([7]; 50 µM): 79.03%
- cell viability normalized to control ([7]; 100 µM): 77.53%
- round cells floating in the culture medium [8]: several round cells floating in the culture medium
- impact on cells' adherence or confluency [8]: no negative impact
- vascular irritation signs (hemorrhage, lysis, coagulation) in words [9]: no significant irritant effects
- tC = time of coagulation [9]: 286 s
- tH = time of hemorrage [9]: 300 s
- tL = time of lysis [9]: 291 s
- Irritation score (IS) [9]: 0.70
- nuclear morphology changes [10]: several apoptotic-like features

- nuclear morphology changes [4]: no significant nuclear alterations
- nuclear morphology changes [5]: no significant nuclear alterations
- impact on cells' adherence or confluency [8]: no negative impact
- nuclear morphology changes [10]: no significant nuclear alterations
Structure (SMILES): CCCCCCCC/C=C\CCCCCCCC(=O)O [OA, oleic acid]
- viability at 24 h, 50 µM [11]: 87.9%
- viability at 24 h, 100 µM [11]: 76.4%
- doses inducing cytotoxicity in HUVEC endothelial cells [12]: above 200 µM
- viability at 24 h, 50 µM [13]: 89.8%
- viability at 24 h, 100 µM [13]: 82.9%
- round cells floating in the culture medium [8]: several round cells floating in the culture medium
- vascular irritation signs (hemorrhage, lysis, coagulation) in words [9]: No signs of vascular irritation

Structure (SMILES): CCCCC/C=C\C/C=C\CCCCCCCC(=O)O[C@@H]1[C@@H](O)[C@@H](O)[C@H](OC[C@H]2O[C@@H](Oc3c(-c4ccc(O)c(O)c4)oc4cc(O)cc(O)c4c3=O)[C@H](O)[C@@H](O)[C@@H]2O)O[C@H]1C [RUT-L, rutin linoleate]
- tissue viability compared to negative control (DPBS-treated inserts) ([1]; EpiDerm inserts): over 100%
- skin irritation classification (OECD Test Guideline 439, irritant if viability below 50%) [1]: non-irritant
- cell viability normalized to control [2]: 101.25%
- wound healing rate [3]: 22.77%
- nuclear morphology changes [4]: No significant changes
- nuclear morphology changes [5]: No significant changes
- effect on cell viability [6]: stimulatory effect at all concentrations
- effect on cell viability [7, 17]: stimulatory effect
- impact on cells' adherence or confluency [8]: no negative impact
- vascular irritation signs (hemorrhage, lysis, coagulation) in words [9]: no significant irritant effects
- tC = time of coagulation [9]: 290 s
- tH = time of hemorrage [9]: 300 s
- tL = time of lysis [9]: 295 s
- Irritation score (IS) [9]: 0.49
- nuclear morphology changes [10]: No significant changes

Structure (SMILES): C[C@@H]1O[C@@H](OC[C@H]2O[C@@H](Oc3c(-c4ccc(O)c(O)c4)oc4cc(O)cc(O)c4c3=O)[C@H](O)[C@@H](O)[C@@H]2O)[C@H](O)[C@H](O)[C@H]1O [RUT, Rutin]
- IC50, inhibitory effect on HaCaT cells' growth [14]: 60 µg/mL (≈ 98.3 µM)
- effect on wound regeneration [15]: no impact on wound regeneration
- nuclear morphology changes [4]: no significant nuclear alterations
- nuclear morphology changes [5]: no significant nuclear alterations
- effect on cell viability [6]: not affected
- effect on cell viability ([7]; highest concentrations (50 and 100 µM)): did not decrease cells viability
- effect on cell viability [7, 17]: stimulatory effect
- wound healing rate [16]: 37.73%
- impact on cells' adherence or confluency [8]: no negative impact
- vascular irritation signs (hemorrhage, lysis, coagulation) in words [9]: No signs of vascular irritation
- nuclear morphology changes [10]: no significant nuclear alterations

Structure (SMILES): CCCCCCCCCCCCOS(=O)(=O)[O-].[Na+] [SDS 1%, sodium dodecyl sulphate]
- tissue viability ([1]; EpiDerm inserts, positive control 5% solution): 10%
- vascular irritation signs (hemorrhage, lysis, coagulation) in words [9]: the most obvious signs of vascular irritation
- tC = time of coagulation [9]: 15 s
- tH = time of hemorrage [9]: 22 s
- tL = time of lysis [9]: 20 s
- Irritation score (IS) [9]: 19.78
